Results as given in US9695155B2, “Herbicidal substituted pyrimidinyloxy benzene compounds” (E. I. DU PONT DE NEMOURS AND COMPANY, priority 2013, dated 2017).

Tests used:
barnyardgrass [1] = assay: Test C postemergence; assay type: in vivo, Echinochloa crus-galli; details: for Plant response rating, Barnyardgrass / Barnyardgrass plant response rating: scale 0 to 100 (0 no effect, 100 complete control)
From the text: (§1) Seeds of plant species selected from blackgrass (Alopecurus myosuroides), Italian ryegrass (Lolium multiflorum), wheat, winter (winter wheat, Triticum aestivum), galium (catchweed bedstraw, Galium aparine), corn (Zea mays), large (Lg) crabgrass (Digitaria sanguinalis), giant foxtail (Setaria faberii), johnsongrass (Sorghum halepense), lambsquarters (Chenopodium album), morningglory (Ipomoea coccinea), yellow nutsedge (Cyperus esculentus), pigweed (Amaranthus retroflexus), ragweed (common ragweed, Ambrosia elatior), soybean (Glycine max), barnyardgrass (Echinochloa crus-galli), oilseed rape (Brassica napus), waterhemp (common waterhemp, Amaranthus rudis), kochia (Kochia scoparia), wild oat (Avena fatua), surinam grass (Brachiaria decumbens), foxtail, green (green foxtail, Setaria viridis), goosegrass (Eleusine indica), bromegrass, downy (downy bromegrass, Bromus tectorum), nightshade (eastern black nightshade, Solanum ptycanthum), cocklebur (common cocklebur, Xanthium strumarium), cupgrass, woolly (woolly cupgrass, Eriochloa villosa), bermudagrass (Cynodon dactylon), sunflower, (common oilseed sunflower, Helianthus annuus), Russian thistle (Salsola kali), and velvetleaf (Abutilon theophrasti) were planted into a blend of loam soil and sand and treated preemergence with test chemicals formulated in a non-phytotoxic solvent mixture which included a surfactant.
(§2) At the same time, plants selected from these crop and weed species and also barley, winter (winter barley, Hordeum vulgare), windgrass (Apera spica-venti), chickweed (common chickweed, Stellaria media), deadnettle (henbit deadnettle, Lamium amplexicaule), and canarygrass (littleseed canarygrass, Phalaris minor) were planted in pots containing Redi-Earth® planting medium (Scotts Company, 14111 Scottslawn Road, Marysville, Ohio 43041) comprising spaghnum peat moss, vermiculite, wetting agent and starter nutrients and treated with postemergence applications of test chemicals formulated in the same manner. Plants ranged in height from 2 to 18 cm (1- to 4-leaf stage) for postemergence treatments. Treated plants and controls were maintained in a greenhouse for 13 to 15 days, after which time all species were compared to controls and visually evaluated. Plant response ratings, summarized in Table C, are based on a scale of 0 to 100 where 0 is no effect and 100 is complete control. A dash (-) response means no test result.

oilseed rape = assay: Test C postemergence; assay type: in vivo, Brassica napus; details: for Plant response rating, Oilseed Rape / Oilseed Rape plant response rating: scale 0 to 100 (0 no effect, 100 complete control)
From the text: as §1, §2

large (Lg) crabgrass = assay: Test C postemergence; assay type: in vivo, Digitaria sanguinalis; details: for Plant response rating, Crabgrass, Large / Crabgrass, Large plant response rating: scale 0 to 100 (0 no effect, 100 complete control)
Method in brief: (§3)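 Seeds were sown in loam–sand blend and sprayed preemergence, while plants at 1- to 4-leaf stage (2–18 cm) in peat-based medium received postemergence sprays; test chemicals were formulated in a non-phytotoxic solvent with surfactant. After 13–15 days in a greenhouse, injury was rated visually against controls, 0 (no effect) to 100 (complete control).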

soybean = assay: Test C postemergence; assay type: in vivo, Glycine max; details: for Plant response rating, Soybean / Soybean plant response rating: scale 0 to 100 (0 no effect, 100 complete control)
Method in brief: as §3

velvetleaf [2] = assay: Test C postemergence; assay type: in vivo, Abutilon theophrasti; details: for Plant response rating, Velvetleaf / Velvetleaf plant response rating: scale 0 to 100 (0 no effect, 100 complete control)
Method in brief: as §3

velvetleaf [3] = assay: Test A postemergence; assay type: in vivo, Abutilon theophrasti
Method in brief: (§4)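 Scoring: eye-based comparison with untreated controls, 0 for no effect through 100 for complete control, at about day 10. Treatments: directed soil spray preemergence; foliar spray postemergence on 2–10 cm plants at the one- to two-leaf stage. Medium: loam soil with sand.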

sedge, umbrella = assay: Test B flooded paddy test; assay type: in vivo, Cyperus difformis; details: Flood, 250 g ai/ha; 0 to 100 scale where 0 is no effect and 100 is complete control
Method in brief: (§5)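 Plants at 2-leaf stage; pots flooded to 3 cm above soil and compound applied directly into paddy water, depth held throughout. After 13 to 15 days in greenhouse, visual rating versus controls on 0 (no effect) to 100 (complete control) scale.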

barnyardgrass [4] = assay: Test B flooded paddy test; assay type: in vivo, Echinochloa crus-galli; details: Flood, 250 g ai/ha; 0 to 100 scale where 0 is no effect and 100 is complete control
Method in brief: as §5

morningglory = assay: Test A preemergence; assay type: in vivo, Ipomoea spp.
Method in brief: as §4

wheat = assay: Test A preemergence; assay type: in vivo, Triticum aestivum
Method in brief: as §4

waterhemp = assay: Test C postemergence; assay type: in vivo, Amaranthus rudis; details: for Plant response rating, Waterhemp / Waterhemp plant response rating: scale 0 to 100 (0 no effect, 100 complete control)
From the text: as §1, §2

[5] = Postemergence, 31 g ai/ha, 13 to 15 days
[6] = 125 g ai/ha, 0 to 100 scale where 0 is no effect and 100 is complete control
[7] = 500 g ai/ha, 0 to 100 scale, 0 no effect, 100 complete control, approx. 10 days
[8] = 16 g ai/ha, postemergence, 0 is no effect, 100 is complete control
[9] = 125 g ai/ha, postemergence, visual rating
[10] = 31 g ai/ha, postemergence, visual rating, 13 to 15 days
[11] = Postemergence, 62 g ai/ha, 13 to 15 days

| Structure (SMILES) | Plant response rating (0 to 100), Barnyardgrass (barnyardgrass [1]; 250 g ai/ha, postemergence) | Plant response rating, Barnyardgrass (barnyardgrass [1]; [5]) | Plant response rating, Barnyardgrass (barnyardgrass [1]; Postemergence, 62 g ai/ha) | Plant response rating (0 to 100), Oilseed Rape (oilseed rape; 250 g ai/ha, postemergence) | Plant response rating, Oilseed Rape (oilseed rape; Postemergence, 62 g ai/ha) | Plant response rating (0 to 100), Crabgrass, Large (large (Lg) crabgrass; 250 g ai/ha, postemergence) | Plant response rating, Crabgrass, Large (large (Lg) crabgrass; Postemergence, 62 g ai/ha) | Plant response rating (0 to 100), Soybean (soybean; 250 g ai/ha, postemergence) | Plant response rating, Soybean (soybean; Postemergence, 62 g ai/ha) | Plant response rating (0 to 100), Velvetleaf (velvetleaf [2]; 250 g ai/ha, postemergence) | Plant response rating, Velvetleaf (velvetleaf [2]; Postemergence, 62 g ai/ha) | Plant response rating, Sedge, Umbrella (sedge, umbrella) | Plant response rating, Barnyardgrass (barnyardgrass [4]) | Plant response rating, Waterhemp (waterhemp; Postemergence, 62 g ai/ha) | Plant response rating, Barnyardgrass (barnyardgrass [1]; [9]) | Plant response rating, Oilseed Rape (oilseed rape; [9]) | Plant response rating, Crabgrass, Large (large (Lg) crabgrass; [9]) | Plant response rating, Soybean (soybean; [9]) | Plant response rating, Velvetleaf (velvetleaf [2]; [9]) | Plant response rating, Waterhemp (waterhemp; [9]) | further results |
| --- | --- | --- | --- | --- | --- | --- | --- | --- | --- | --- | --- | --- | --- | --- | --- | --- | --- | --- | --- | --- | --- |
| N#Cc1cccc(Oc2ncc(F)cn2)c1-n1cc(Br)cn1 [Compound 62] | 10 | 0 | 5 | 75 | 20 | 35 | 5 | 95 | 85 | 85 | 20 | 80 | 0 | 60 | – | – | – | – | – | – | Plant response rating (0 to 100), Barnyardgrass (barnyardgrass [1]; 125 g ai/ha, postemergence): 5; Plant response rating (0 to 100), Oilseed Rape (oilseed rape; 125 g ai/ha, postemergence): 60; Plant response rating, Oilseed Rape (oilseed rape; [5]): 20; Plant response rating (0 to 100), Crabgrass, Large (large (Lg) crabgrass; 125 g ai/ha, postemergence): 10; Plant response rating, Crabgrass, Large (large (Lg) crabgrass; [5]): 5; Plant response rating (0 to 100), Soybean (soybean; 125 g ai/ha, postemergence): 95; Plant response rating, Soybean (soybean; [5]): 45; Plant response rating (0 to 100), Velvetleaf (velvetleaf [2]; 125 g ai/ha, postemergence): 75; Plant response rating, Velvetleaf (velvetleaf [2]; [5]): 20; Plant response rating, Velvetleaf (velvetleaf [3]; [6]): 100; Plant response rating, Velvetleaf (velvetleaf [3]; 500 g ai/ha, 0 to 100 scale, 0 no effect, 100 complete control): 100; Plant response rating, Morningglory (morningglory; [6]): 0; Morningglory plant response rating (morningglory; [7]): 90; Plant response rating, Wheat (wheat; [6]): 0; Wheat plant response rating (wheat; [7]): 80; Plant response rating (0 to 100), Waterhemp (waterhemp; 125 g ai/ha, postemergence): 75; Plant response rating (0 to 100), Waterhemp (waterhemp; 250 g ai/ha, postemergence): 75; Plant response rating, Waterhemp (waterhemp; [5]): 40 |
| FCc1cccc(Oc2ncc(Br)cn2)c1-n1cc(C(F)(F)F)cn1 [Compound 120] | – | 5 | 10 | – | 5 | – | 10 | – | 30 | – | 35 | 95 | 0 | 80 | 10 | 15 | 10 | 80 | 50 | 85 | Plant response rating (0 to 100), Barnyardgrass (barnyardgrass [1]; [8]): 5; Plant response rating (0 to 100), Oilseed Rape (oilseed rape; [8]): 5; Plant response rating (0 to 100), Crabgrass, Large (large (Lg) crabgrass; [8]): 5; Plant response rating (0 to 100), Soybean (soybean; [8]): 30; Plant response rating (0 to 100), Velvetleaf (velvetleaf [2]; [8]): 10; Plant response rating (0 to 100), Waterhemp (waterhemp; [8]): 75 |
| Fc1cccc(Oc2ncc(Cl)cn2)c1-n1cc(C2CC2)nn1 [Compound 155] | – | – | 5 | – | 50 | – | 5 | – | 75 | – | 70 | 80 | 40 | 80 | 10 | 80 | 15 | 80 | 85 | 98 | Plant response rating (0 to 100), Barnyardgrass (barnyardgrass [1]; [8]): 0; Barnyardgrass plant response rating (barnyardgrass [1]; [10]): 5; Plant response rating (0 to 100), Oilseed Rape (oilseed rape; [8]): 60; Oilseed Rape plant response rating (oilseed rape; [10]): 50; Plant response rating (0 to 100), Crabgrass, Large (large (Lg) crabgrass; [8]): 5; Crabgrass, Large plant response rating (large (Lg) crabgrass; [10]): 5; Plant response rating (0 to 100), Soybean (soybean; [8]): 5; Soybean plant response rating (soybean; [10]): 70; Plant response rating (0 to 100), Velvetleaf (velvetleaf [2]; [8]): 45; Velvetleaf plant response rating (velvetleaf [2]; [10]): 75; Plant response rating (0 to 100), Waterhemp (waterhemp; [8]): 45; Waterhemp plant response rating (waterhemp; [10]): 65 |
| N#Cc1cccc(Oc2ncc(Cl)cn2)c1-n1cc(-n2ccc(C(F)(F)F)n2)cn1 [Compound 284] | 15 | – | – | 80 | – | 10 | – | 65 | – | 70 | – | 85 | 0 | – | 15 | 80 | 10 | 85 | 30 | 98 | Barnyardgrass plant response rating (barnyardgrass [1]; [10]): 10; Plant response rating, Barnyardgrass (barnyardgrass [1]; [11]): 10; Oilseed Rape plant response rating (oilseed rape; [10]): 70; Plant response rating, Oilseed Rape (oilseed rape; [11]): 70; Crabgrass, Large plant response rating (large (Lg) crabgrass; [10]): 5; Plant response rating, Crabgrass, Large (large (Lg) crabgrass; [11]): 5; Soybean plant response rating (soybean; [10]): 35; Plant response rating, Soybean (soybean; [11]): 40; Velvetleaf plant response rating (velvetleaf [2]; [10]): 15; Plant response rating, Velvetleaf (velvetleaf [2]; [11]): 15; Waterhemp plant response rating (waterhemp; [10]): 85; Plant response rating (0 to 100), Waterhemp (waterhemp; 250 g ai/ha, postemergence): 100; Plant response rating, Waterhemp (waterhemp; [11]): 85 |
